Values of other authors, collected in patent US20020143065A1, “Developing a delivery system for multi-pharmaceutical active materials at various release rates” (priority 2000, published 2002).

Key:
[1] = gynecological patients, intravenous patient-controlled analgesia
[2] = compared with tramadol racemate

SMILES	analgesic efficacy [1]	side effects (nausea and vomiting) [1]	opiate-like analgesic effect [2]
COc1cccc(C2(O)CCCCC2CN(C)C)c1 (racemic) [racemate, tramadol]	more efficacy than (−) tramadol enantiomer	no more side effects than (+) tramadol enantiomer	–
COc1cccc([C@@]2(O)CCCC[C@@H]2CN(C)C)c1 (single isomer, unassigned) [(+) enantiomer, (+) tramadol]	more potent in producing analgesia	produced more nausea and vomiting	considerably enhanced compared with that of tramadol
